From article PMC10096175, “An In Vitro Antimicrobial, Anticancer and Antioxidant Activity of N–[(2–Arylmethylthio)phenylsulfonyl]cinnamamide Derivatives” (Molecules, 2023)
Values after ≈ are worked out from the molar mass of the structure shown. Like-named read-outs stand apart in the source and are kept apart here.

Tests used:
E. hirae ATCC 10541 = assay: MIC determination, reference strain (microdilution); format: cell-based; conditions: Enterococcus hirae, ATCC10541; E. hirae ATCC 10541; Co-trimoxazole as sulfamethoxazole/trimethoprim; read-out: MIC
C. albicans ATCC 10231 = assay: MIC determination, reference fungal strain (microdilution); format: cell-based; conditions: Candida albicans, ATCC10231; C. albicans ATCC 10231; read-out: MIC
[1] = test system: S. epidermidis ATCC 14990; assay: MIC determination, reference strain (microdilution); format: cell-based; conditions: Staphylococcus epidermidis, ATCC14990; S. epidermidis ATCC 14990; Co-trimoxazole as sulfamethoxazole/trimethoprim; read-out: MIC
[2] = test system: clinical methicillin-resistant S. aureus (MRSA) strains; assay: MIC on clinical MRSA strains; format: cell-based; conditions: Staphylococcus aureus, MRSA / VISA; strains MRSA12673, MRSA21804, MRSA18532, MRSA12647 and MRSAN315 VISA
Text: In the next step, we evaluated the compounds on clinical methicillin-resistant S. aureus (MRSA) strains (Figure 2) and methicillin-resistant coagulase-negative Staphylococcus (MRCNS) (Figure 3). The group of CNS includes nonpathogenic or opportunistic pathogens, while coagulase-positive staphylococci are represented by S. aureus. About 30% of the human population carries S. aureus in the upper respiratory tract. Infections caused by S. aureus include all purulent skin conditions (boils, abscesses, folliculitis) and nosocomial infections. The strains isolated from hospitals are usually antibiotic-resistant, where MRSA strains are the majority. Staphylococcus epidermidis (like other coagulase-negative Staphylococcus) is included in the microflora of human skin and can easily cause surface contamination after surgical procedures.
Sterile sheep blood defibrinated (GrasoBiotech). Co-trimoxazole (composition sulfamethoxazole 400 mg/trimethoprim 80 mg; WZF Polfa Poland). Ketoconazole (WZF Polfa Poland). Bacteria: Enterococcus hirae ATCC 10541 and Enterococcus faecalis ATCC 51299, Staphylococcus epidermidis ATCC 14990, Staphylococcus aureus ATCC 6538, clinical strains Staphylococcus aureus MRSA, clinical strains Staphylococcus sp. […]

HeLa cells = assay: MTT assay; format: cell-based, human; conditions: for IC50: Homo sapiens, HeLa, 24 h, MTT, 24 h treatment, read-out: IC50; for Selectivity index (SI): IC50 HEK-293 / IC50 HeLa
HEK-293 cells = assay: MTT assay, noncancerous cells; format: cell-based; conditions: Homo sapiens, HEK293; HEK-293; MTT, 24 h treatment; read-out: IC50
ABTS assay = conditions: ABTS radical scavenging; 10 min, 30 °C
Procedure: The ABTS assay was performed spectrophotometrically. […] ABTS solution with methanol/DMSO (9/1 v/v) was used as a control. After 10 min of incubation at 30 °C in the dark, the absorbance was analyzed at λ = 750 nm by a 96-well microplate reader (Epoch, BioTek System, Santa Clara, CA, USA). Ascorbic acid was used as a standard.
ABTS inhibition was calculated by the following equation:ABTS Inhibition (%) = [Acontrol − Asample)/Acontrol] × 100%
(§1) IC50 values of the samples were calculated using program GraFit v. 7.0 (Erithacus Software). The analysis was performed three times, with tree replications in each (n = 9). Statistical analysis was performed with one-way ANOVA with Tuckey’s post-hoc test.

in vitro = conditions: sheep, defibrinated sheep blood diluted 1:9 v/v with PBS, pH 7
C. diphtheriae = assay: MIC determination, reference strain (microdilution); format: cell-based; conditions: Corynebacterium diphtheriae; C. diphtheriae; Co-trimoxazole as sulfamethoxazole/trimethoprim; read-out: MIC
S. aureus ATCC 6538 = assay: as above; format: cell-based; conditions: Staphylococcus aureus, ATCC6538; S. aureus ATCC 6538; ± SD; Co-trimoxazole as sulfamethoxazole/trimethoprim; read-out: MIC
B. subtilis ATCC 6633 = assay: as above; format: cell-based; conditions: Bacillus subtilis, ATCC6633; B. subtilis ATCC 6633; Co-trimoxazole as sulfamethoxazole/trimethoprim; read-out: MIC
MCF-7 cells = assay: MTT assay; format: cell-based, human; conditions: for IC50: Homo sapiens, MCF7, MCF-7, MTT, 24 h treatment, read-out: IC50; for Selectivity index (SI): IC50 HEK-293 / IC50 MCF-7
E. coli ATCC 8739 = assay: MIC determination, reference strain (microdilution); format: cell-based; conditions: Escherichia coli, ATCC8739; E. coli ATCC 8739; Co-trimoxazole as sulfamethoxazole/trimethoprim; read-out: MIC
[3] = test system: clinical strains of Enterococcus sp.; assay: MIC on clinical Enterococcus strains; format: cell-based
SKOV-3 cells = assay: MTT assay; format: cell-based, human; conditions: for IC50: Homo sapiens, SK-OV-3, SKOV-3, MTT, 24 h treatment, read-out: IC50; for Selectivity index (SI): IC50 HEK-293 / IC50 SKOV-3
DPPH assay = conditions: DPPH radical scavenging; 40 min, room temperature
Procedure: The DPPH assay was performed spectrophotometrically. The amount of 30 µL of different concentrations of samples, dissolved in methanol/DMSO (9/1 v/v), was mixed with 170 µL of 0.06 mM DPPH methanolic solution and completed with methanol to a final volume of 300 µL. DPPH methanolic solution with methanol/DMSO (9/1 v/v) was used as a control. After 40 min of incubation at room temperature in the dark, the absorbance was analyzed at λ = 510 nm by a 96-well microplate reader (Epoch, BioTek System, Santa Clara, CA, USA). Ascorbic acid was used as a standard.
DPPH inhibition was calculated by the following equation:DPPH Inhibition (%) = [Acontrol − Asample)/Acontrol] × 100%
as §1

E. faecalis ATCC 51299 = assay: MIC determination, reference strain (microdilution); format: cell-based; conditions: Enterococcus faecalis, ATCC51299; E. faecalis ATCC 51299; Co-trimoxazole as sulfamethoxazole/trimethoprim; read-out: MIC
[4] = test system: Staphylococcus sp. and Enterococcus sp.; assay: MIC, summary statements on reference Gram-positive cocci; format: cell-based; conditions: Staphylococcus and Enterococcus species, reference Gram-positive cocci (range over strains)
Procedure: Sterile sheep blood defibrinated (GrasoBiotech). Co-trimoxazole (composition sulfamethoxazole 400 mg/trimethoprim 80 mg; WZF Polfa Poland). Ketoconazole (WZF Polfa Poland). Bacteria: Enterococcus hirae ATCC 10541 and Enterococcus faecalis ATCC 51299, Staphylococcus epidermidis ATCC 14990, Staphylococcus aureus ATCC 6538, clinical strains Staphylococcus aureus MRSA, clinical strains Staphylococcus sp. (MRCNS), clinical strain Staphylococcus epidermidis MRSE, clinical strain Enterococcus sp., Corynebacterium diphtheriae ZMF, Bacillus subtilis ATCC 6633, Escherichia coli ATCC 8739, Candida albicans ATCC 10231. Brain-heart infusion broth (BHI, Becton Dickinson) for Enterococcus hirae ATCC 10541 and Enterococcus faecalis ATCC 51299, BHI supplement with 10% bovine serum for Bacillus subtilis, Corynebacterium diphtheriae ZMF, Staphylococcus epidermidis ATCC 14990, Staphylococcus aureus ATCC 6538, clinical strains Staphylococcus aureus MRSA, clinical strains Staphylococcus sp. (CNS), clinical strain Staphylococcus epidermidis MRSE grew in Mueller-Hinton broth (MH cation-adjusted, Becton Dickinson) in an aerobic atmosphere at 37 °C for 48 h, in an aerobic atmosphere at 37 °C for 72 h. Candida albicans grew in Sabourauda broth (Sb, Becton Dickinson), in an aerobic atmosphere at 37 °C for 72 h. After determination of the bacterial viability, BHI blood agar plates, MH agar plates, and Sb agar plates were used.
The MIC determination for the reference and clinical strains was performed based on the methodology described by Kula et al.. The dry test samples were dissolved in dimethyl sulfoxide (DMSO) and diluted in water, resulting in a finale concentration of about 500 µg/mL. These solutions were diluted and added to the first well of each microtiter line. Dilution in geometric progression was done by transferring the mixture/dilution (100 μL) from the first to the twelfth well. An aliquot (100 μL) was discarded from the twelfth well. The final concentration of the samples used in the antimicrobial activity assay ranged from 125 to 0.006 µg/mL. Co-trimoxazole (for bacteria), with the composition sulfamethoxazole 400 mg/trimethoprim 80 mg was used as a reference compound in the concentration range of 20 000/4000 to 1/0.2 µg/mL. Ketoconazole (for fungi) was used as a reference compound in the concentration range of 125 to 0.006 µg/mL. Tests were incubated in adequate conditions described by Kula et al.. Diluent concentration had no effect on the activity of the tested compounds. All experiments were carried out three times.

| MIC (E. hirae ATCC 10541) [µg/mL] | MIC (C. albicans ATCC 10231) [µg/mL] | MIC [1] [µg/mL] | IC50 (HeLa cells) [µg/mL] | IC50 ABTS (ABTS assay) [µg/mL] | MIC (C. diphtheriae) [µg/mL] | MIC (S. aureus ATCC 6538) [µg/mL] | MIC (B. subtilis ATCC 6633) [µg/mL] | IC50 (MCF-7 cells) [µg/mL] | MIC (E. coli ATCC 8739) [µg/mL] | IC50 (SKOV-3 cells) [µg/mL] | IC50 DPPH (DPPH assay) [µg/mL] | MIC (E. faecalis ATCC 51299) [µg/mL] | Structure (SMILES) | Selectivity index (SI) (HeLa cells) | IC50 (HEK-293 cells) [µg/mL] | Selectivity index (SI) (MCF-7 cells) | Selectivity index (SI) (SKOV-3 cells) | also measured |
| --- | --- | --- | --- | --- | --- | --- | --- | --- | --- | --- | --- | --- | --- | --- | --- | --- | --- | --- |
| 4 ± 0.15 (≈ 7.21 µM) | > 125 | 2 ± 0.58 (≈ 3.61 µM) | 12 ± 0.44 (≈ 21.6 µM) | 620.39 ± 1.29 (≈ 1120 µM) | > 125 | 2 ± 0.29 (≈ 3.61 µM) | 62.5 ± 0.29 (≈ 113 µM) | 14.8 ± 0.66 (≈ 26.7 µM) | > 125 | 11 ± 0.5 (≈ 19.8 µM) | 652.93 ± 2.39 (≈ 1180 µM) | 4 ± 0.15 (≈ 7.21 µM) | Cc1cc(S(=O)(=O)NC(=O)/C=C/c2ccc(F)cc2)c(SCc2cc3c(cc2Cl)OCO3)cc1Cl [Compound 17b, (E)–N–{4–Chloro–2–[(6–chlorobenzo[d][1,3]dioxol–5–yl)methylthio]–5–methylphenylsulfonyl}–3–(4–fluorophenyl)acrylamide] | 0.6 | 7.17 ± 0.44 (≈ 12.9 µM) | 0.5 | 0.6 | MIC [2]: > 125 µg/mL; hemolysis at 24 h, 62.5 µg/mL (in vitro): 9%; MIC ([3]; Enteroccoccus sp. 3934825): > 125 µg/mL; MIC ([3]; Enterococcus sp. 12848): > 125 µg/mL; MIC ([3]; Enterococcus sp. 3937152, read-out: MIC): > 125 µg/mL |
| 2 ± 0.58 (≈ 3.41 µM) | > 125 | 1 ± 0.29 (≈ 1.7 µM) | 13.47 ± 0.13 (≈ 22.9 µM) | 697.68 ± 1.26 (≈ 1190 µM) | 62.5 ± 0.29 (≈ 106 µM) | 1 ± 0.29 (≈ 1.7 µM) | 62.5 ± 0.29 (≈ 106 µM) | 30.7 ± 2.49 (≈ 52.3 µM) | > 125 | 16.6 ± 0.69 (≈ 28.3 µM) | 945.37 ± 0.14 (≈ 1610 µM) | 2 ± 0.58 (≈ 3.41 µM) | Cc1cc(S(=O)(=O)NC(=O)/C=C/c2ccc(Br)cc2)c(SCc2cccc3ccccc23)cc1Cl [Compound 16b, (E)–3–(4–Bromophenyl)–N–{[4–chloro–5–methyl–2–(naphthalen–1–yl)methylthio]phenylsulfonyl}acrylamide] | 1.2 | 15.7 ± 1.62 (≈ 26.7 µM) | 0.5 | 0.9 | hemolysis at 24 h, 31.25 µg/mL (in vitro): 12 to 20%; MIC [4]: 1 to 2 µg/mL (≈ 1.7 to 3.41 µM) |
